{"source": "BindingDB's records for doi:10.1016/j.bmcl.2003.11.078", "about": "(Virginia Commonwealth University, 2004)", "assay": "Binding affinity at imidazoline receptor I-1 of rat."}
{"smiles": "Brc1cccc2c3c([nH]c12)CNCC3", "note": "[8-Bromo-2,3,4,9-tetrahydro-1H-beta-carboline]", "values": [{"measurement": "Ki", "result": 3.74, "unit": "µM"}]}
